# Measured values reported in BindingDB's records for doi:10.1002/cbic.201402089 (University of Santiago De Compostela, 2014).
# Values joined by “and” are separate entries in the source; they are usually repeats but may differ in a detail not shown here. Equal entries are not always repeated.
# Target: T1, Kinesin-like protein KIF11 [1-973] (Homo sapiens, UniProt P52732)
# T1 construct: 1-973
# T1 sequence (P52732 whole entry): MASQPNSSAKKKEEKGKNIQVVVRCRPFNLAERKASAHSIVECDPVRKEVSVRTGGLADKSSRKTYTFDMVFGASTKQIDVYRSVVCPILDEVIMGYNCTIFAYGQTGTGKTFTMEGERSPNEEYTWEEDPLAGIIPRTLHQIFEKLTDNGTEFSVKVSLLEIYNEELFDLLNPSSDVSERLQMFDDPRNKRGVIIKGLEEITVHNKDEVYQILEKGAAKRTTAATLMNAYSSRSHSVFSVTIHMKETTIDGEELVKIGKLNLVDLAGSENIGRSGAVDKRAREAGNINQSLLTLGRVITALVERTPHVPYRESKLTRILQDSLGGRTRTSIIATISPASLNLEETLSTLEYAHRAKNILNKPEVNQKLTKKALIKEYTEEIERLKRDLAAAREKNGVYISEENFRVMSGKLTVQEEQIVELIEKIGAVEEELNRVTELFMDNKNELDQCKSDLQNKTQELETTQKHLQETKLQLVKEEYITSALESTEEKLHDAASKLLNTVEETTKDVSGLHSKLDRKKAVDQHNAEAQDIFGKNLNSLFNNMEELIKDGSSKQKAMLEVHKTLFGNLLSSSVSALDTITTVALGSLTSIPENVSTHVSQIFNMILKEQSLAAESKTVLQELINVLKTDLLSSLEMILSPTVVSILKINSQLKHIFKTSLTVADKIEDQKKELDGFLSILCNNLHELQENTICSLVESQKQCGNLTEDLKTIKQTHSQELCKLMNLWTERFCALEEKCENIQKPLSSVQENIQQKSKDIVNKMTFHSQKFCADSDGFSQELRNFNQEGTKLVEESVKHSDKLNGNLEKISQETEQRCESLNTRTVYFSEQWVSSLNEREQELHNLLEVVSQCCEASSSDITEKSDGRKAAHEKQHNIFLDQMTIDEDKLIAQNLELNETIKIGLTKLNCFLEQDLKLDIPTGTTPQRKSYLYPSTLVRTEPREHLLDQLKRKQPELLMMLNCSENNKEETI
# Assay: Microtubule-activated ATPase Kinetic Assay
row,SMILES,IC50
1,"CCOC(=O)CNC(=O)C(C1CC1)n1c(C(=O)c2ccccc2)nc2cc(Br)c(Br)cc21 (stereo not drawn) [(−)-Ethyl 2-[2-(2-benzoyl-5,6-dibromo-1H-benzo[d]imidazol-1-yl)-2 cyclopropylacetamido] acetate (Compound 21)]",1.49 µM and 2.52 µM
2,"CCOC(=O)C1C(C)=NC(=S)NC1c1cccc(O)c1 (stereo not given) [ethyl 4-(3-hydroxyphenyl)-6-methyl-2-sulfanylidene-3,4-dihydro-1H-pyrimidine-5-carboxylate]",6.9 µM
3,"CCOC(=O)CNC(=O)C(C1CC1)n1c(Cc2ccccc2)nc2cc(Br)c(Br)cc21 (stereo not given) [Ethyl 2-[2-(2-benzyl-5,6-dibromo-1H-benzo[d]imidazol-1-yl)-2-cyclopropylacetamido] acetate (Compound 12)]",2.29 µM
4,"CCCC(C(=O)NCC(=O)OCC)n1c(C(=O)c2ccccc2)nc2cc(Br)c(Br)cc21 (stereo not drawn) [(−)-Ethyl 2-[2-(2-benzoyl-5,6-dibromo-1H-benzo[d]imidazol-1-yl)pentanamido]acetate (Compound 23)]",1.37 µM and 1.72 µM
5,"CCCC(C(=O)NCC(=O)OCC)n1c(Cc2ccccc2)nc2cc(Cl)c(Cl)cc21 (stereo not given) [Ethyl 2-[2-(2-benzyl-5,6-dichloro-1H-benzo[d]imidazol-1-yl)pentanamido] acetate (Compound 9)]",1.6 µM
